The test system of one assay is Ovariectomized rats. Briefly: Vaginal keratinization test on ovariectomized rats (Example C.2). The following applies: estradiol undecylate induced keratinization, per os once daily on days 1-3, active dose = 50% of rats show complete suppression. It counts as in vivo. In a few lines:
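Value is the lowest oral dose (mg/kg) at which half of tested rats show complete suppression of estradiol undecylate-induced vaginal keratinization by histology. Ovariectomized rats received 100 μg/100 g estradiol undecylate s.c., then compound or PEG 200 vehicle p.o. daily for three days; sacrifice one day later.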

Assay [1] concerns metabolism of retinoic acid in human breast cancer cells. The assay is described as follows: Inhibition of retinoic acid (RA) metabolism (Example C.1). It counts as cell-based. The following applies: MCF-7 human breast cancer cells, 3H-RA as substrate, concentration needed to reduce the amount of metabolites to 50% of the control. Put shortly:
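Test compound (in 1% DMSO) added at several concentrations to MCF-7 cell suspensions fed ³H-RA, after RA induction of metabolism one day earlier. Scintillation counting of the separated polar metabolite fraction; IC50 = concentration giving 50% of control metabolite level.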

Consider 27 compounds from patent US7179825B2, “Retinoic acid mimetic anilides” (Janssen Pharmaceutica N.V., priority 1997, dated 2007).

With `CC(=O)Nc1ccc(C(c2cccc(F)c2)n2cncn2)cc1` (stereo not drawn) [Compound 615], the “LAD (lowest active dose)” value with Ovariectomized rats is >20.00 mg/kg. The concentration for half-maximal inhibition (IC50) in assay [1] was > 1000 nM.

As for `COc1ccc(CC(=O)Nc2ccc(C(n3cncn3)C(C)(C)C)cc2)cc1OC.O` (stereo not drawn) [Compound 642], the “LAD (lowest active dose)” value in the assay on Ovariectomized rats is reported as 2.50 mg/kg. In addition, the IC50 in assay [1] amounted to 1.16 nM.

As for `CC(C)C(c1ccc(NC(=O)Cc2ccccc2)cc1)n1ccnc1` (stereo not drawn) [Compound 650], in the assay with Ovariectomized rats, the “LAD (lowest active dose)” value is 10.00 mg/kg. In assay [1], the IC50 came out at 4.86 nM.

Turning to `CC(C)C(c1ccc(NC(=O)Cc2ccc(Cl)cc2)cc1)n1ccnc1` (stereo not drawn) [Compound 651], the “LAD (lowest active dose)” value with Ovariectomized rats stood at 5.00 mg/kg. Besides, in assay [1], the half-inhibitory concentration (IC50) worked out at 10.5 nM.

Consider `CC(C)C(c1ccc(NC(=O)Cc2cccc(F)c2)cc1)n1ccnc1` (stereo not drawn) [Compound 656], for which the “LAD (lowest active dose)” value in the assay with Ovariectomized rats is 10.00 mg/kg. Further, the IC50 in assay [1] was 1.47 nM.

For `CC(C(=O)Nc1ccc(C(C(C)C)n2ccnc2)cc1)c1ccccc1` (stereo not drawn) [Compound 657], the “LAD (lowest active dose)” value in the assay with Ovariectomized rats is on record as >10.00 mg/kg. Moreover, in assay [1], the IC50 came to 5.36 nM.

With `COc1ccc(CC(=O)Nc2ccc(C(C(C)C)n3ccnc3)cc2)cc1` (stereo not drawn) [Compound 662], the “LAD (lowest active dose)” value in the assay with Ovariectomized rats is listed as 5.00 mg/kg. Further, the IC50 in assay [1] is 0.358 nM.

`CC(C)C(c1ccc(NC(=O)Cc2ccccc2Cl)cc1)n1ccnc1` (stereo not drawn) [Compound 664]: the “LAD (lowest active dose)” value in the assay with Ovariectomized rats came to 5.00 mg/kg. For the same compound, in assay [1], the half-inhibitory concentration (IC50) is 1.56 nM.

`CC(C)C(c1ccc(NC(=O)Cc2ccc(O)cc2)cc1)n1ccnc1` (stereo not drawn) [Compound 668]: in the assay with Ovariectomized rats, the “LAD (lowest active dose)” value turned out to be 5.00 mg/kg. Also, the IC50 in assay [1] turned out to be 3.16 nM.

With `CC(C)C(c1ccc(NC(=O)C(O)c2ccc(Cl)cc2)cc1)n1ccnc1` (stereo not drawn) [Compound 669], the “LAD (lowest active dose)” value with Ovariectomized rats came out at 5.00 mg/kg. Besides, the 50% inhibitory concentration (IC50) in assay [1] was found to be 8.66 nM.

With `O=C(C=C(c1ccccc1)c1ccccc1)Nc1ccc(C(c2ccc(Cl)cc2)c2ccccn2)cc1` (stereo not drawn) [Compound 680], in the assay on Ovariectomized rats, the “LAD (lowest active dose)” value is recorded as >20.00 mg/kg. Moreover, the half-maximal inhibitory concentration (IC50) in assay [1] was 12.1 nM.

In the case of `C/C(=C\c1ccccc1)C(=O)Nc1ccc(C(c2ccccn2)C(C)C)cc1` (stereo not drawn) [Compound 682], in the assay with Ovariectomized rats, the “LAD (lowest active dose)” value is listed as >20.00 mg/kg. For the same compound, the IC50 in assay [1] is > 100 nM.

As to `Cc1nccn1C(c1ccc(NC(=O)Cc2ccc(Cl)cc2)cc1)C(C)C` (stereo not drawn) [Compound 695], the “LAD (lowest active dose)” value in the assay with Ovariectomized rats is on record as >10.00 mg/kg. Besides, the IC50 in assay [1] was > 100 nM.

In the case of `CC(C)C(c1ccc(NC(N)=Nc2ccccc2)cc1)n1ccnc1` (stereo not drawn) [Compound 743], the “LAD (lowest active dose)” value in the assay with Ovariectomized rats is on record as >10.00 mg/kg. Also, the IC50 in assay [1] came to 11 nM.

As for `CC(C)C(c1ccc(NC(=O)Cc2ccc(Cl)cc2)cc1)(C(C)C)n1cncn1` [Compound 745], the “LAD (lowest active dose)” value with Ovariectomized rats was >5.00 mg/kg. For the same compound, in assay [1], the IC50 turned out to be 3.87 nM.

On to `CC(C)C(c1ccc(NC(=O)Nc2cccc(F)c2)cc1)(C(C)C)n1ccnc1` [Compound 746], for which the “LAD (lowest active dose)” value in the assay with Ovariectomized rats was >5.00 mg/kg. For the same compound, in assay [1], the IC50 is > 100 nM.

As for `CC(=Cc1ccccc1)C(=O)Nc1ccc(C(C(C)C)n2cnnc2)cc1` (stereo not drawn) [Compound 749], in the assay with Ovariectomized rats, the “LAD (lowest active dose)” value is >20.00 mg/kg. In addition, in assay [1], the IC50 worked out at 126 nM.

For `C/C(=C\c1ccccc1)C(=O)Nc1ccc(C(C(C)C)(C(C)C)n2ccnc2)cc1` [Compound 751], the “LAD (lowest active dose)” value in the assay on Ovariectomized rats came out at 10.00 mg/kg. The IC50 in assay [1] is 67 nM.

Consider `CC(=Cc1ccccc1)C(=O)Nc1ccc(C(C)(C)n2ccnc2)cc1` [Compound 753], for which the “LAD (lowest active dose)” value in the assay with Ovariectomized rats is listed as >10.00 mg/kg. The IC50 in assay [1] was > 100 nM.

On to `CCC(c1ccc(NC(=O)C(C)=Cc2ccccc2)cc1)(C(C)C)n1ccnc1` (stereo not drawn) [Compound 758], for which the “LAD (lowest active dose)” value in the assay on Ovariectomized rats was >5.00 mg/kg. In addition, the IC50 in assay [1] was 1.88 nM.

Regarding `COc1ccc(CC(=O)Nc2ccc(C(C(C)C)(C(C)C)n3ccnc3)cc2)cc1OC` [Compound 762], the “LAD (lowest active dose)” value in the assay with Ovariectomized rats is listed as >5.00 mg/kg. Moreover, the IC50 in assay [1] stood at 40.8 nM.

Turning to `CC(C)C(c1ccc(NC(=O)Cc2ccc(Cl)cc2)cc1)(C(C)C)n1ccnc1` [Compound 763], the “LAD (lowest active dose)” value in the assay with Ovariectomized rats is listed as >5.00 mg/kg. Further, the IC50 in assay [1] stood at 5.62 nM.

On to `CC(C)C(c1ccc(NC(=S)Cc2ccc(Cl)cc2)cc1)n1ccnc1` (stereo not drawn) [Compound 764, 4-chloro-N-[4-[1-(1H-imidazol-1-yl)-2-methylpropyl]phenyl]benzenethane-thioamide], for which the minimal effective dose with Ovariectomized rats (Rattus norvegicus, po, read-out: LAD (lowest active dose)) was > 5 mg/kg. Besides, the IC50 in assay [1] (MCF7) was determined as 23.3 nM.

With `Cc1nccn1C(c1ccc(NC(=O)Nc2cccc(F)c2)cc1)C(C)C` (stereo not drawn) [Compound 773], in the assay with Ovariectomized rats, the “LAD (lowest active dose)” value is given as >10.00 mg/kg. For the same compound, the half-maximal inhibitory concentration (IC50) in assay [1] was > 100 nM.

`O=C(Cc1ccc(Cl)cc1)Nc1ccc(C2(n3ccnc3)CCC2)cc1` [Compound 774]: in the assay on Ovariectomized rats, the “LAD (lowest active dose)” value is reported as 10.00 mg/kg. In addition, the IC50 in assay [1] worked out at 5.27 nM.

`CC(=O)Nc1ccc(C2(n3ccnc3)CCCCC2)cc1` [Compound 776]: the “LAD (lowest active dose)” value in the assay on Ovariectomized rats is on record as >20.00 mg/kg. Also, the IC50 in assay [1] came to 4.39 nM.

For the compound `CCC(CC)C(c1ccc(NC(=O)c2nc3ccccc3s2)cc1)n1ccnc1.O=C(O)C(=O)O` (stereo not drawn) [Compound 778], the “LAD (lowest active dose)” value with Ovariectomized rats was 5.00 mg/kg. Moreover, in assay [1], the IC50 came to 75.9 nM.
